In PubChem BioAssay AID260 (DTP/NCI, 2004):
“And” between values parts separate entries of the source, which are not always exact repeats. Equal values may be shown once. Inconclusive results and toxic doses are left out.

Tested on: CD2F1 mice, intracerebral L1210 leukemia, survival T/C
Assay: NCI In Vivo Anticancer Drug Screen. Data for tumor model L1210 Leukemia (intracerebral) in CD2F1 (CDF1) mice
Conditions: higher = longer survival
Experimental: The antitumor activity of compounds was measured in mice bearing transplantable tumors. Survival or tumor size were measured and the results are expressed as the measurement made in the treated group (T) divided by the measurement made in the vehicle treated control group (C). The tumor model used in this assay is L1210 Leukemia (intracerebral) in CD2F1 (CDF1) mice

[1] = endpoint: median survival time, dose: 8.0 mg/kg/injection, schedule: Q01DX001 (ip), vehicle: saline + alcohol
[2] = endpoint: median survival time, dose: 16.0 mg/kg/injection, schedule: Q01DX001 (ip), vehicle: saline + alcohol
[3] = endpoint: median survival time, dose: 16.0 mg/kg/injection, schedule: Q01DX005 (ip), vehicle: saline
[4] = endpoint: median survival time, dose: 32.0 mg/kg/injection, schedule: Q01DX005 (ip), vehicle: saline

## O=NN(CCCl)C(=O)NCCCl
endpoint: mean survival time, dose: 10.0 mg/kg/injection, schedule: Q01DX001 (ip), vehicle: saline
  T/C: 175 % of control
endpoint: mean survival time, dose: 15.0 mg/kg/injection, schedule: Q01DX002 (ip), vehicle: saline + alcohol
  T/C: 184 % of control
endpoint: mean survival time, dose: 20.0 mg/kg/injection, schedule: Q01DX001 (ip), vehicle: saline + alcohol
  T/C: 169 % of control and 182 % of control
endpoint: mean survival time, dose: 20.0 mg/kg/injection, schedule: Q01DX001 (ip), vehicle: saline
  T/C: 210 % of control and 254 % of control
endpoint: mean survival time, dose: 20.0 mg/kg/injection, schedule: Q01DX002 (ip), vehicle: saline + alcohol
  T/C: 281 % of control
endpoint: mean survival time, dose: 25.0 mg/kg/injection, schedule: Q01DX002 (ip), vehicle: saline + alcohol
  T/C: 348 % of control
endpoint: mean survival time, dose: 30.0 mg/kg/injection, schedule: Q01DX001 (ip), vehicle: saline + alcohol
  T/C: 220 % of control and 319 % of control
endpoint: mean survival time, dose: 30.0 mg/kg/injection, schedule: Q01DX002 (ip), vehicle: saline + alcohol
  T/C: 184 % of control
endpoint: mean survival time, dose: 40.0 mg/kg/injection, schedule: Q01DX001 (ip), vehicle: saline + alcohol
  T/C: 343 % of control
endpoint: mean survival time, dose: 40.0 mg/kg/injection, schedule: Q01DX001 (ip), vehicle: saline
  T/C: 202 % of control
endpoint: median survival time, dose: 4.0 mg/kg/injection, schedule: Q01DX001 (ip), vehicle: saline + alcohol
  T/C: 93 % of control
[1]
  T/C: 97 % of control
endpoint: median survival time, dose: 12.5 mg/kg/injection, schedule: Q01DX001 (ip), vehicle: DMSO
  T/C: 173 % of control
[2]
  T/C: 97 % of control
endpoint: median survival time, dose: 20.0 mg/kg/injection, schedule: Q01DX001 (ip), vehicle: distilled water + alcohol
  T/C: 305 % of control
endpoint: median survival time, dose: 20.0 mg/kg/injection, schedule: Q01DX001 (ip), vehicle: saline + alcohol
  T/C: 190 % of control
endpoint: median survival time, dose: 24.0 mg/kg/injection, schedule: Q01DX001 (ip), vehicle: saline + alcohol
  T/C: 122 % of control and 153 % of control and 270 % of control
endpoint: median survival time, dose: 25.0 mg/kg/injection, schedule: Q01DX001 (ip), vehicle: DMSO
  T/C: 253 % of control
endpoint: median survival time, dose: 30.0 mg/kg/injection, schedule: Q01DX001 (ip), vehicle: saline + alcohol
  T/C: 201 % of control and 313 % of control
endpoint: median survival time, dose: 40.0 mg/kg/injection, schedule: Q01DX001 (ip), vehicle: distilled water + alcohol
  T/C: 183 % of control
endpoint: median survival time, dose: 40.0 mg/kg/injection, schedule: Q01DX001 (ip), vehicle: saline + alcohol
  T/C: 220 % of control
endpoint: median survival time, dose: 60.0 mg/kg/injection, schedule: Q01DX001 (ip), vehicle: saline + alcohol
  T/C: 166 % of control

## COc1ccc2cc1Oc1ccc(cc1)C[C@H]1c3cc(c(OC)cc3CCN1C)Oc1c(OC)c(OC)cc3c1[C@H](C2)N(C)CC3
endpoint: median survival time, dose: 50.0 mg/kg/injection, schedule: Q01DX005 (ip), vehicle: Klucel (hydroxypropylcellulose) (HPC)
  T/C: 90 % of control and 91 % of control
endpoint: median survival time, dose: 100.0 mg/kg/injection, schedule: Q01DX005 (ip), vehicle: Klucel (hydroxypropylcellulose) (HPC)
  T/C: 95 % of control and 98 % of control
endpoint: median survival time, dose: 200.0 mg/kg/injection, schedule: Q01DX005 (ip), vehicle: Klucel (hydroxypropylcellulose) (HPC)
  T/C: 95 % of control and 104 % of control
endpoint: median survival time, dose: 400.0 mg/kg/injection, schedule: Q01DX005 (ip), vehicle: Klucel (hydroxypropylcellulose) (HPC)
  T/C: 101 % of control

## c1ccc([C@H]2CN3CCSC3=N2)cc1
endpoint: median survival time, dose: 5.0 mg/kg/injection, schedule: Q01DX009 (ip), vehicle: saline
  T/C: 100 % of control and 101 % of control and 103 % of control
endpoint: median survival time, dose: 10.0 mg/kg/injection, schedule: Q01DX005 (ip), vehicle: saline
  T/C: 101 % of control
endpoint: median survival time, dose: 10.0 mg/kg/injection, schedule: Q01DX009 (ip), vehicle: saline
  T/C: 124 % of control and 100 % of control and 102 % of control
endpoint: median survival time, dose: 20.0 mg/kg/injection, schedule: Q01DX005 (ip), vehicle: saline
  T/C: 98 % of control and 116 % of control
endpoint: median survival time, dose: 20.0 mg/kg/injection, schedule: Q01DX009 (ip), vehicle: saline
  T/C: 97 % of control (2×) and 104 % of control
endpoint: median survival time, dose: 40.0 mg/kg/injection, schedule: Q01DX005 (ip), vehicle: saline
  T/C: 98 % of control and 113 % of control

## O=NN(CCCl)C(=O)NC1CCCCC1
endpoint: median survival time, dose: 4.0 mg/kg/injection, schedule: Q01DX001 (ip), vehicle: other
  T/C: 112 % of control
[1]
  T/C: 106 % of control
endpoint: median survival time, dose: 16.0 mg/kg/injection, schedule: Q01DX001 (ip), vehicle: other
  T/C: 177 % of control
[2]
  T/C: 118 % of control
endpoint: median survival time, dose: 32.0 mg/kg/injection, schedule: Q01DX001 (ip), vehicle: other
  T/C: 415 % of control
endpoint: median survival time, dose: 64.0 mg/kg/injection, schedule: Q01DX001 (ip), vehicle: saline + alcohol
  T/C: 389 % of control
endpoint: median survival time, dose: 128.0 mg/kg/injection, schedule: Q01DX001 (ip), vehicle: saline + alcohol
  T/C: 168 % of control
endpoint: median survival time, dose: 256.0 mg/kg/injection, schedule: Q01DX001 (ip), vehicle: saline + alcohol
  T/C: 90 % of control

## O=C(O)CC(NC(=O)CP(=O)(O)O)C(=O)O (configuration not stated)
endpoint: mean survival time, dose: 200.0 mg/kg/injection, schedule: Q01DX009 (ip), vehicle: saline
  T/C: 100 % of control
endpoint: mean survival time, dose: 225.0 mg/kg/injection, schedule: Q01DX009 (ip), vehicle: saline
  T/C: 108 % of control
endpoint: mean survival time, dose: 250.0 mg/kg/injection, schedule: Q01DX009 (ip), vehicle: saline
  T/C: 101 % of control

## COS(C)(=O)=O
[3]
  T/C: 107 % of control and 108 % of control
[4]
  T/C: 120 % of control
endpoint: median survival time, dose: 64.0 mg/kg/injection, schedule: Q01DX005 (ip), vehicle: saline
  T/C: 113 % of control
endpoint: median survival time, dose: 128.0 mg/kg/injection, schedule: Q01DX005 (ip), vehicle: saline
  T/C: 107 % of control and 111 % of control

## CN(C)C1=C(N2CC2)C(=O)C(N(C)C)=C(N2CC2)C1=O
endpoint: mean survival time, dose: 0.75 mg/kg/injection, schedule: Q04DX003 (ip), vehicle: saline
  T/C: 122 % of control and 110 % of control
endpoint: mean survival time, dose: 1.5 mg/kg/injection, schedule: Q04DX003 (ip), vehicle: saline
  T/C: 152 % of control and 154 % of control
endpoint: mean survival time, dose: 3.0 mg/kg/injection, schedule: Q04DX003 (ip), vehicle: saline
  T/C: 156 % of control and 172 % of control

## O=C1C(N2CC2)=C(N2CCCC(O)C2)C(=O)C(N2CC2)=C1N1CCCC(O)C1 (configuration not stated)
endpoint: mean survival time, dose: 2.0 mg/kg/injection, schedule: Q04DX003 (ip), vehicle: saline
  T/C: 103 % of control and 110 % of control
endpoint: mean survival time, dose: 4.0 mg/kg/injection, schedule: Q04DX003 (ip), vehicle: saline
  T/C: 121 % of control and 110 % of control
endpoint: mean survival time, dose: 6.0 mg/kg/injection, schedule: Q04DX003 (ip), vehicle: saline
  T/C: 114 % of control
endpoint: mean survival time, dose: 8.0 mg/kg/injection, schedule: Q04DX003 (ip), vehicle: saline
  T/C: 114 % of control

## CC(=O)c1ccccc1N=NN(C)C
endpoint: mean survival time, dose: 10.0 mg/kg/injection, schedule: Q01DX007 (ip), vehicle: DMSO
  T/C: 91 % of control
endpoint: mean survival time, dose: 20.0 mg/kg/injection, schedule: Q01DX007 (ip), vehicle: DMSO
  T/C: 91 % of control
endpoint: mean survival time, dose: 40.0 mg/kg/injection, schedule: Q01DX007 (ip), vehicle: DMSO
  T/C: 93 % of control
endpoint: mean survival time, dose: 80.0 mg/kg/injection, schedule: Q01DX007 (ip), vehicle: DMSO
  T/C: 103 % of control
endpoint: mean survival time, dose: 120.0 mg/kg/injection, schedule: Q01DX007 (ip), vehicle: DMSO
  T/C: 100 % of control

## C[C@]12CCC(=O)C=C1CC[C@@H]1[C@@H]2[C@@H](O)C[C@@]2(C)[C@H]1CC[C@]2(O)C(=O)COP(=O)(O)OCC1OC(n2ccc(N)nc2=O)C(O)C1O (some centres not stated)
endpoint: median survival time, dose: 18.75 mg/kg/injection, schedule: Q01DX005 (ip), vehicle: other
  T/C: 116 % of control
endpoint: median survival time, dose: 150.0 mg/kg/injection, schedule: Q01DX005 (ip), vehicle: other
  T/C: 160 % of control
endpoint: median survival time, dose: 300.0 mg/kg/injection, schedule: Q01DX005 (ip), vehicle: other
  T/C: 169 % of control

## NC(C/[N+]([O-])=N/O)C(=O)O (configuration not stated)
endpoint: median survival time, dose: 1.0 mg/kg/injection, schedule: Q01DX009 (ip), vehicle: saline with Tween-80
  T/C: 98 % of control
endpoint: median survival time, dose: 2.0 mg/kg/injection, schedule: Q01DX009 (ip), vehicle: saline with Tween-80
  T/C: 105 % of control
endpoint: median survival time, dose: 4.0 mg/kg/injection, schedule: Q01DX009 (ip), vehicle: saline with Tween-80
  T/C: 101 % of control
endpoint: median survival time, dose: 8.0 mg/kg/injection, schedule: Q01DX009 (ip), vehicle: saline with Tween-80
  T/C: 101 % of control
endpoint: median survival time, dose: 16.0 mg/kg/injection, schedule: Q01DX009 (ip), vehicle: saline with Tween-80
  T/C: 102 % of control
endpoint: median survival time, dose: 32.0 mg/kg/injection, schedule: Q01DX009 (ip), vehicle: saline with Tween-80
  T/C: 104 % of control
endpoint: median survival time, dose: 56.25 mg/kg/injection, schedule: Q01DX009 (ip), vehicle: saline
  T/C: 115 % of control
endpoint: median survival time, dose: 100.0 mg/kg/injection, schedule: Q01DX009 (ip), vehicle: Klucel (hydroxypropylcellulose) (HPC)
  T/C: 110 % of control and 112 % of control
endpoint: median survival time, dose: 112.5 mg/kg/injection, schedule: Q01DX009 (ip), vehicle: saline
  T/C: 89 % of control
endpoint: median survival time, dose: 200.0 mg/kg/injection, schedule: Q01DX009 (ip), vehicle: Klucel (hydroxypropylcellulose) (HPC)
  T/C: 86 % of control and 87 % of control
endpoint: median survival time, dose: 225.0 mg/kg/injection, schedule: Q01DX009 (ip), vehicle: saline
  T/C: 89 % of control

## O=C1C(NCCO)=C(N2CC2)C(=O)C(NCCO)=C1N1CC1
endpoint: mean survival time, dose: 0.37 mg/kg/injection, schedule: Q01DX009 (ip), vehicle: saline
  T/C: 111 % of control
endpoint: mean survival time, dose: 1.5 mg/kg/injection, schedule: Q01DX009 (ip), vehicle: saline
  T/C: 119 % of control and 122 % of control

## F
[3]
  T/C: 100 % of control and 104 % of control
[4]
  T/C: 88 % of control and 105 % of control
